Measured values published in US6737383B1, “Herbicidal oxadiazolidines” (priority 1999, dated 2004).

How the values were obtained:
sugar beet = test: Test B pre/postemergence sugar beet; type: in vivo, Beta vulgaris; conditions: for Plant response rating, Sugarbeets: scale of 0 to 10 where 0 is no effect and 10 is complete control
In short: (§1)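 Test chemicals in a non-phytotoxic solvent mixture with surfactant were sprayed preemergence onto planted seeds and postemergence onto plants 2 to 18 cm tall (1- to 4-leaf stage). After twelve to sixteen days in a greenhouse, injury was visually rated against untreated controls from 0 (no effect) to 10 (complete control).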

velvetleaf = test: Test B pre/postemergence velvetleaf; type: in vivo, Abutilon theophrasti; conditions: for Plant response rating, Velvetleaf: scale of 0 to 10 where 0 is no effect and 10 is complete control
In short: as §1

giant foxtail = test: Test B pre/postemergence giant foxtail; type: in vivo, Setaria faberii
In short: as §1

wheat = test: Test B pre/postemergence wheat; type: in vivo, Triticum aestivum; conditions: for Plant response rating, Wheat: scale of 0 to 10 where 0 is no effect and 10 is complete control
In short: as §1

corn = test: Test B pre/postemergence corn; type: in vivo, Zea mays
In short: as §1

duck salad = test: Test B flood test duck salad; type: in vivo, Heteranthera limosa
In short: (§2)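 Each value is a visual injury score relative to controls, with 10 meaning complete control and 0 no effect. Evaluation took place twelve to sixteen days after the 2-leaf-stage plants were treated and kept in the greenhouse.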

blackgrass = test: Test B pre/postemergence blackgrass; type: in vivo, Alopecurus myosuroides
In short: as §1

wild oat = test: Test B pre/postemergence wild oat; type: in vivo, Avena fatua; conditions: for Plant response rating, Wild oats: scale of 0 to 10 where 0 is no effect and 10 is complete control
In short: as §1

surinam grass = test: Test B pre/postemergence surinam grass; type: in vivo, Brachiaria decumbens
In short: as §1

cocklebur = test: Test B pre/postemergence cocklebur; type: in vivo, Xanthium strumarium
In short: as §1

crabgrass = test: Test B pre/postemergence crabgrass; type: in vivo, Digitaria sanguinalis
In short: as §1

soybean = test: Test B pre/postemergence soybean; type: in vivo, Glycine max; conditions: for Plant response rating, Soybean: scale of 0 to 10 where 0 is no effect and 10 is complete control
In short: as §1

rape = test: Test B pre/postemergence rape; type: in vivo, Brassica napus; conditions: for Plant response rating, Rape: scale of 0 to 10 where 0 is no effect and 10 is complete control
In short: as §1

smallflower flatsedge = test: Test B flood test smallflower flatsedge; type: in vivo, Cyperus difformis
In short: as §2

rice = test: Test B flood test rice; type: in vivo, Oryza sativa
In short: as §2

pigweed = test: Test B pre/postemergence pigweed; type: in vivo, Amaranthus retroflexus; conditions: for Plant response rating, Redroot pigweed: scale of 0 to 10 where 0 is no effect and 10 is complete control
In short: as §1

[1] = Postemergence, Rate 250 g/ha, scale 0 to 10
[2] = Preemergence, Rate 250 g/ha, scale 0 to 10, 0 is no effect, 10 is complete control
[3] = Preemergence, Rate 500 g/ha, scale 0 to 10, 0 is no effect, 10 is complete control
[4] = Rate 62 g/ha, Postemergence, scale 0 to 10 (0 no effect, 10 complete control)
[5] = Rate 125 g/ha, Postemergence, scale 0 to 10, 0 is no effect, 10 is complete control
[6] = Postemergence, Rate 500 g/ha, scale of 0 to 10 where 0 is no effect and 10 is complete control
[7] = Preemergence, Rate 62 g/ha, scale of 0 to 10 where 0 is no effect and 10 is complete control
[8] = Preemergence, Rate 125 g/ha, scale of 0 to 10 where 0 is no effect and 10 is complete control
[9] = Rate 62 g/ha, flood test species, Pre-emergence, visual evaluation after twelve to sixteen days
[10] = Rate 125 g/ha, under heading Pre-emergence, flood test species, visual evaluation after twelve to sixteen days
[11] = Rate 250 g/ha, Pre-emergence (flood test species), scale 0 to 10, 0 is no effect, 10 is complete control
[12] = Rate 500 g/ha, Pre-emergence, flood test species, scale 0 to 10 (0 no effect, 10 complete control)

CC(C)N(C(=O)n1oc(=O)n(CCS(C)(=O)=O)c1=O)c1ccc(F)cc1 [Compound 453]
0: Sugarbeets plant response rating (sugar beet; [1]) | Plant response rating, Sugarbeets (sugar beet; Preemergence, Rate 62 g/ha) | Plant response rating, Sugarbeets (sugar beet; Preemergence, Rate 125 g/ha) | Sugarbeets plant response rating (sugar beet; [4]) | Sugarbeets plant response rating (sugar beet; [5]) | Velvetleaf plant response rating (velvetleaf; [1]) | Plant response rating, Velvetleaf (velvetleaf; Preemergence, Rate 62 g/ha) | Plant response rating, Velvetleaf (velvetleaf; Preemergence, Rate 125 g/ha) | Velvetleaf plant response rating (velvetleaf; [4]) | Velvetleaf plant response rating (velvetleaf; [5]) | Wheat plant response rating (wheat; [1]) | Plant response rating, Wheat (wheat; Preemergence, Rate 62 g/ha) | Plant response rating, Wheat (wheat; Preemergence, Rate 125 g/ha) | Wheat plant response rating (wheat; [4]) | Wheat plant response rating (wheat; [5]) | Corn plant response rating (corn; [1]) | Corn plant response rating (corn; [6]) | Plant response rating, Corn (corn; [7]) | Plant response rating, Corn (corn; [8]) | Corn plant response rating (corn; [2]) | Corn plant response rating (corn; [4]) | Corn plant response rating (corn; [5]) | Plant response rating, Ducksalad (0 to 10 scale, 0 is no effect, 10 is complete control) (duck salad; [9]) | Ducksalad plant response rating (0 to 10 scale, 0 is no effect, 10 is complete control) (duck salad; [10]) | Ducksalad plant response rating (duck salad; [11]) | Ducksalad plant response rating (duck salad; [12]) | Plant response rating, Blackgrass (blackgrass; [7]) | Plant response rating, Blackgrass (blackgrass; [8]) | Blackgrass plant response rating (blackgrass; [4]) | Blackgrass plant response rating (blackgrass; [5]) | Wild oats plant response rating (wild oat; [1]) | Plant response rating, Wild oats (wild oat; Preemergence, Rate 62 g/ha) | Plant response rating, Wild oats (wild oat; Preemergence, Rate 125 g/ha) | Wild oats plant response rating (wild oat; [4]) | Wild oats plant response rating (wild oat; [5]) | Plant response rating, B. signalgrass (surinam grass; [7]) | B. signalgrass plant response rating (surinam grass; [4]) | B. signalgrass plant response rating (surinam grass; [5]) | Cocklebur plant response rating (cocklebur; [1]) | Cocklebur plant response rating (cocklebur; [6]) | Plant response rating, Cocklebur (cocklebur; [7]) | Plant response rating, Cocklebur (cocklebur; [8]) | Cocklebur plant response rating (cocklebur; [2]) | Cocklebur plant response rating (cocklebur; [3]) | Cocklebur plant response rating (cocklebur; [4]) | Cocklebur plant response rating (cocklebur; [5]) | Crabgrass plant response rating (crabgrass; [4]) | Plant response rating, Soybean (soybean; Preemergence, Rate 62 g/ha) | Plant response rating, Soybean (soybean; Preemergence, Rate 125 g/ha) | Soybean plant response rating (soybean; [2]) | Soybean plant response rating (soybean; [3]) | Rape plant response rating (rape; [1]) | Plant response rating, Rape (rape; Preemergence, Rate 62 g/ha) | Plant response rating, Rape (rape; Preemergence, Rate 125 g/ha) | Rape plant response rating (rape; [2]) | Rape plant response rating (rape; [4]) | Rape plant response rating (rape; [5]) | Plant response rating, S. Flatsedge (0 to 10 scale, 0 is no effect, 10 is complete control) (smallflower flatsedge; [9]) | S. Flatsedge plant response rating (0 to 10 scale, 0 is no effect, 10 is complete control) (smallflower flatsedge; [10]) | S. Flatsedge plant response rating (smallflower flatsedge; [11]) | S. Flatsedge plant response rating (smallflower flatsedge; [12]) | Plant response rating, Rice (0 to 10 scale, 0 is no effect, 10 is complete control) (rice; [9]) | Rice plant response rating (0 to 10 scale, 0 is no effect, 10 is complete control) (rice; [10]) | Rice plant response rating (rice; [11]) | Rice plant response rating (rice; [12]) | Redroot pigweed plant response rating (pigweed; [1]) | Plant response rating, Redroot pigweed (pigweed; Preemergence, Rate 62 g/ha) | Redroot pigweed plant response rating (pigweed; [4]) | Redroot pigweed plant response rating (pigweed; [5])
7: Giant foxtail plant response rating (giant foxtail; [1]) | Plant response rating, Giant foxtail (giant foxtail; [7]) | Crabgrass plant response rating (crabgrass; [3])
6: Velvetleaf plant response rating (velvetleaf; [3]) | Wheat plant response rating (wheat; [3]) | Blackgrass plant response rating (blackgrass; [1]) | Blackgrass plant response rating (blackgrass; [6]) | B. signalgrass plant response rating (surinam grass; [2]) | B. signalgrass plant response rating (surinam grass; [3]) | Plant response rating, Crabgrass (crabgrass; [8]) | Crabgrass plant response rating (crabgrass; [2]) | Redroot pigweed plant response rating (pigweed; [2])
4: Crabgrass plant response rating (crabgrass; [1]) | Plant response rating, Redroot pigweed (pigweed; Preemergence, Rate 125 g/ha)
5: Sugarbeets plant response rating (sugar beet; [3]) | Giant foxtail plant response rating (giant foxtail; [5]) | Blackgrass plant response rating (blackgrass; [3]) | B. signalgrass plant response rating (surinam grass; [6]) | Plant response rating, Crabgrass (crabgrass; [7])
10: Giant foxtail plant response rating (giant foxtail; [2]) | Giant foxtail plant response rating (giant foxtail; [3]) | Crabgrass plant response rating (crabgrass; [6]) | Redroot pigweed plant response rating (pigweed; [3])
9: Giant foxtail plant response rating (giant foxtail; [6]) | Plant response rating, Giant foxtail (giant foxtail; [8])
3: Giant foxtail plant response rating (giant foxtail; [4]) | Wheat plant response rating (wheat; [2]) | Corn plant response rating (corn; [3]) | Blackgrass plant response rating (blackgrass; [2]) | Rape plant response rating (rape; [3])
1: Soybean plant response rating (soybean; [1]) | Soybean plant response rating (soybean; [4]) | Soybean plant response rating (soybean; [5])
8: Wild oats plant response rating (wild oat; [3])
2: Sugarbeets plant response rating (sugar beet; [2]) | Velvetleaf plant response rating (velvetleaf; [2]) | Wild oats plant response rating (wild oat; [2]) | B. signalgrass plant response rating (surinam grass; Postemergence, Rate 250 g/ha, scale 0 to 10, 0 no effect, 10 complete control) | Plant response rating, B. signalgrass (surinam grass; [8])
